According to ChEMBL document CHEMBL1141505, “Conformational significance of EH21A1-A4, phenolic derivatives of geldanamycin, for Hsp90 inhibitory activity” (Bioorg Med Chem Lett, 2008):

Key:
[1] = Binding affinity at purified Hsp90 by DELFIA assay
[2] = system: HCT-116; experiment: Growth inhibition of human HCT116 cells; type: functional
[3] = system: DLD-1; experiment: Growth inhibition of human DLD1 cells; type: functional
[4] = system: A549; experiment: Growth inhibition of human A549 cells; type: functional
[5] = system: KPL4; experiment: Inhibition of Hsp90 in human KPL4 cells assessed as depletion of ErbB2 level after 40 hrs; type: cell-based
[6] = system: KPL4; experiment: Inhibition of Hsp90 in human KPL4 cells assessed as depletion of Raf-1 level after 40 hrs; type: cell-based
[7] = system: K562; experiment: Induction of human K562 cells differentiation; type: functional, cell-based
[8] = Growth inhibition of human KPL4 cells; type: functional

Compound	EC50 [1]	GI50 [2]	GI50 [3]	GI50 [4]	MEC [5]	MEC [6]	EC50 [7]	GI50 [8]
C[C@@H]1C[C@H]2O[C@@H]2/C=C\C=C\C(=O)Cc2c(Cl)c(O)cc(O)c2C(=O)O1 [RADICICOL]	0.0008 µM	0.058 µM	0.076 µM	0.11 µM	–	–	–	–
CO[C@H]1C[C@H](C)Cc2cc(O)cc(c2)NC(=O)/C(C)=C/CC[C@H](OC)[C@@H](OC(N)=O)/C(C)=C/[C@H](C)[C@H]1O	0.0022 µM	0.78 µM	2.35 µM	2.73 µM	1 µM	1 µM	1.9 µM	0.73 µM
C=CCNC1=C2C[C@@H](C)C[C@H](OC)[C@H](O)[C@@H](C)/C=C(\C)[C@H](OC(N)=O)[C@@H](OC)/C=C\C=C(/C)C(=O)NC(=CC1=O)C2=O [TANESPIMYCIN]	–	–	–	–	0.03 µM	0.03 µM	–	0.007 µM
COc1c2cc(cc1OC(C)=O)NC(=O)/C(C)=C/CC[C@H](OC)[C@@H](OC(N)=O)/C(C)=C/[C@H](C)[C@@H](O)[C@@H](OC)C[C@H](C)C2	0.0208 µM	0.61 µM	3.52 µM	3.55 µM	0.33 µM	0.11 µM	0.23 µM	0.18 µM
COc1c(O)cc2cc1C[C@@H](C)C[C@H](OC)[C@H](O)[C@@H](C)/C=C(\C)[C@H](OC(N)=O)[C@@H](OC)CC/C=C(\C)C(=O)N2 [REBLASTATIN]	0.0023 µM	0.5 µM	2.08 µM	2.72 µM	0.33 µM	0.33 µM	0.76 µM	0.45 µM
CO[C@H]1C[C@H](C)Cc2cc(cc(O)c2O)NC(=O)/C(C)=C/CC[C@H](OC)[C@@H](OC(N)=O)/C(C)=C/[C@H](C)[C@H]1O	0.006 µM	8.91 µM	9.4 µM	10.3 µM	10 µM	10 µM	21 µM	4.33 µM
COC1=C2C[C@@H](C)C[C@H](OC)[C@H](O)[C@@H](C)/C=C(\C)[C@H](OC(N)=O)[C@@H](OC)/C=C\C=C(/C)C(=O)NC(=CC1=O)C2=O [GELDANAMYCIN]	0.057 µM	0.021 µM	0.037 µM	0.064 µM	0.11 µM	0.33 µM	–	0.059 µM
CO[C@H]1C[C@H](C)Cc2cc(O)cc(c2)NC(=O)/C=C/CC[C@H](OC)[C@@H](OC(N)=O)/C(C)=C/[C@H](C)[C@H]1O	0.0147 µM	> 10 µM	> 10 µM	> 10 µM	3.3 µM	3.3 µM	11 µM	3.39 µM
